Molecules are shown by their SMILES. Entries after “also recorded” stand apart in the source; their conditions may differ. Read-outs that look alike come from different tables or passages of the source.

One test has as its target Lipoxygenase. The note with it: cited from earlier work.
A further test concerns the target T1, hyaluronidase (Bos taurus, UniProt Q2YDK3).
T1 sequence (Q2YDK3 36-553): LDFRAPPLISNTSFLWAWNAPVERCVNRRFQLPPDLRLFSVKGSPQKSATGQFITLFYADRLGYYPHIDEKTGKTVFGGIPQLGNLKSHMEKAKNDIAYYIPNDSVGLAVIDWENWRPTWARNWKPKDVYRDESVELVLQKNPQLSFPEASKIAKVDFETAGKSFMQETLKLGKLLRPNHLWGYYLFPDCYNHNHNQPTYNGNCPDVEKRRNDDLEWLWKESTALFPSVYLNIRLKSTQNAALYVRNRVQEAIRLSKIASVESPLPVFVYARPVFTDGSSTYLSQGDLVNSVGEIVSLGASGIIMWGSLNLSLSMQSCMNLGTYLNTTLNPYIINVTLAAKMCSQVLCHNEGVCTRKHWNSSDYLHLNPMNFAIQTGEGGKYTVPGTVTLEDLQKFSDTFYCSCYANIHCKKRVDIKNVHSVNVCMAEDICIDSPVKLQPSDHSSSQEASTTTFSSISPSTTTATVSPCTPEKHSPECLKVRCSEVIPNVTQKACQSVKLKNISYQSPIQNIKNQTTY
In words: Hyaluronidase inhibition assay (turbidimetric kit). The note with it: sodium hyaluronate substrate, 37 °C, mean ± s.d. Type of test: biochemical. Here is the method:
The hyaluronidase inhibitory activity of the extracts was assessed using the Hyaluronidase Inhibitor Detection Assay Kit purchased from Sigma-Aldrich (St. Louis, MO, USA), which employs a two-step turbidimetric reaction to measure the amount of hyaluronic acid hydrolyzed by the enzyme, where the decrease in turbidity is proportional to the enzymatic activity of the sample. The assay was conducted according to the manufacturer’s instructions, with slight modifications, using 96-well plates. Briefly, a reaction mixture containing 10 μL of C. odorifera extract (HA-E, EA-E, B-E, and W-E, separately) and 20 μL of the enzyme (at a concentration of 100 U/mL in incubation buffer) was mixed in each well. After a 15 min incubation at 37 °C, a 20 μL substrate solution (0.1% sodium hyaluronate) was added to each well. The plates were incubated at 37 °C for an additional 20 min. Then, non-hydrolyzed […] was precipitated by adding 250 μL of 2.5% cetyltrimethylammonium bromide (CTAB). […] The intensity of complex formation was measured by absorbance at 630 nm in a spectrophotometer (METASH, UV-1500B). […] The percentage of hyaluronidase inhibition was calculated using Equation (2), where AS is the absorbance of the solution with the sample extract, AC is the absorbance of the solution without inhibitor, and AT is the absorbance of the enzyme.Inhibition = (AS − AC)/(AT − AC) × 100(2)

Another test has as its target T2, sPLA2 (Type V) (Homo sapiens, UniProt P39877).
T2 construct: purchased Cayman Chemical Co. (Ann Arbor, MI, USA)
T2 sequence (P39877 21-138): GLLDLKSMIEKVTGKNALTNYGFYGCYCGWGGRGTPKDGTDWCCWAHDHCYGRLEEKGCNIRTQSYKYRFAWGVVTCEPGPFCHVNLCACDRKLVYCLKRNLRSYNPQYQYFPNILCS
In words: Screening assay for phospholipase A2 inhibitors (Type V), Cayman kit. Type of test: biochemical. Here is the method: The phospholipase A2 inhibitory activity was determined using the phospholipase A2 (sPLA2) inhibitor detection assay kit (Type V). This kit was purchased from Cayman Chemical Co. (Ann Arbor, MI, USA). Briefly, 10 μL of C. odorifera extracts (HA-E, EA-E, B-E, and W-E, separately) were pre-incubated with 25 mM Tris-HCl buffer at pH 7.5, including 10 μL of phospholipase A2. The reaction was initiated by adding 200 μL of a 1.66 mM diheptanoyl thio-PC substrate solution. The plate was then shaken for 30 s and incubated at 25 °C for 15 min. Then, 10 µL of 5,5′-dithiobis(2-nitrobenzoic acid) (DTNB) was added to stop the enzymatic reaction and allow color development. The reaction mixture was stirred on a shaker for one minute, and the absorbance was subsequently measured at 405 nm with a spectrophotometer (METASH, UV-1500B; Shanghai Metash Instrument Co., Shanghai, China). According to the kit instructions, the sPLA2 activity was evaluated with extract concentrations ranging from 27 to 108 μg/mL. Arachidonic thioester phosphatidylcholine was used as the positive control. […] All tests were performed in triplicate.

For test [1], the target named is T3, lipoxygenase Type I-B LOX A from Glycine max L. (soybean) (15-LOX) (Glycine max, UniProt P08170).
T3 construct: purchased Sigma-Aldrich (Steinheim, Germany)
T3 sequence (P08170 1-839): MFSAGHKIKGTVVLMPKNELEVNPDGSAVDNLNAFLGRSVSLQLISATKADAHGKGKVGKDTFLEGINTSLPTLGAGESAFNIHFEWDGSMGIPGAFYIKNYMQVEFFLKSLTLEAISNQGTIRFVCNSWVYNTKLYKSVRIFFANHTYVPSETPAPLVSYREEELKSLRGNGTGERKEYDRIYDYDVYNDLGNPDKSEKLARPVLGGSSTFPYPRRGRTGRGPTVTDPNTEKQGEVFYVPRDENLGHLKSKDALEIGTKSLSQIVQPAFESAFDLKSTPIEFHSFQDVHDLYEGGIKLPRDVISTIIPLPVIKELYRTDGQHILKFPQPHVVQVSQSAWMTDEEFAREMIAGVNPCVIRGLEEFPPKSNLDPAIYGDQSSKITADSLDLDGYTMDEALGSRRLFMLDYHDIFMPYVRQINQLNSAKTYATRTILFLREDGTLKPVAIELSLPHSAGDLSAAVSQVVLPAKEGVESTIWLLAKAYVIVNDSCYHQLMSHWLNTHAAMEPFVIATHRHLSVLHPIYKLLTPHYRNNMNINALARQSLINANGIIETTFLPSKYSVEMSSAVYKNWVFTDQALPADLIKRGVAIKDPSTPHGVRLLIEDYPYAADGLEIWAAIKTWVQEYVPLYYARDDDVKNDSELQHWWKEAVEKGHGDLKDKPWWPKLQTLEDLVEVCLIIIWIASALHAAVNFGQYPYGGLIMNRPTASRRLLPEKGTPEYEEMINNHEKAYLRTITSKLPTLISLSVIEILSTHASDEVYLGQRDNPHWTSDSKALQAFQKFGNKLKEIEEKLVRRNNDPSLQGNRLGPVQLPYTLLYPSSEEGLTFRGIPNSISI
In words: Inhibitory LOX activity assay (linoleic acid, absorbance at 234 nm). Type of test: biochemical. The protocol:
The inhibitory LOX assay was conducted according to the procedure established by Lyckander and Malterud. The lipoxygenase Type I-B LOX A from Glycine max L. (soybean) (CAS: 9029-60-1) (15-LOX) with an optimal pH of 8.0–9.0 and linoleic acid used here, was obtained from Sigma-Aldrich (Steinheim, Germany).
A linoleic acid ethanol solution (268 µM) was prepared, and 50 µL of this solution was used to prepare concentrations ranging from 0.6 to 26 µg/mL for the HA-E sample, and from 0.6 to 12.9 µg/mL for the EA-E and B-E samples. Then the volume for each concentration was adjusted to 1 mL with 200 mM borate buffer (pH 8.75) containing 0.005% Tween 80. The reaction was initiated by adding 1.5 µL of Soybean 1-LOX (948 U), equivalent to 0.054 g/mL. Enzymatic activity was monitored by measuring the increase in absorbance at 234 nm for 4 min at 37 °C. Each enzyme measurement for each dilution was repeated three times. All tests were performed in triplicate. For this purpose, three samples were taken from each extract. For each of them, enzymatic activity was determined as described above. […] The percentage inhibition of enzyme activity was calculated by comparing the absorbance of the samples to that of the blank, using Equation (1), where A0 is the absorbance of the blank, and A1 is the absorbance of the sample.% inhibition = [(A0 − A1)/A0] × 100(1)
The percentage of inhibition was plotted against sample concentration to calculate the IC50 value.

[2] abbreviates: LOX Inhibition (IC50 µg/mL), soybean 15-LOX, linoleic acid substrate, borate buffer pH 8.75, 37 °C, mean ± s.d.
Setting [3] is: anti-LOX activity, concentration for 50% inhibition in µM, same LOX IC50 expressed in µM.

For the compound `COc1ccc2c(c1)c(CC(=O)O)c(C)n2C(=O)c1ccc(Cl)cc1` [Indomethacin], on Lipoxygenase (extract and its control), the “Lipoxygenase inhibition IC50” value was 7.9 µg/mL. `O=C(O)C1=C[C@@H](O)[C@@H](O)[C@H](O)C1` [Shikimic acid]: the “HA Inhibition (IC50 µg/mL)” value at hyaluronidase is “did not elicit anti-sPLA2-V and anti-hyaluronidase activities”. Further, on sPLA2 (Type V) (sPLA2-V, diheptanoyl thio-PC substrate, 25 °C, mean ± s.d.), the “sPLA2 Inhibition (IC50 µg/mL)” value is recorded as “did not elicit anti-sPLA2-V; also recorded: not active”. Also, the IC50 was 5.57 µM in test [1] (setting [2]) and 5.6 µM in test [1] (setting [3]). With `O=c1c(O)c(-c2ccc(O)c(O)c2)oc2cc(O)cc(O)c12` [Quercetin, reference compound], the IC50 at sPLA2 (Type V) (sPLA2-V, diheptanoyl thio-PC substrate, 25 °C, mean ± s.d., read-out: sPLA2 Inhibition (IC50 µg/mL) (converted)) was 77.7 µM. With `O=c1cc(-c2ccccc2)oc2cc(O)c(O)c(O)c12` [Baicalein], the “Lipoxygenase inhibition IC50” value on Lipoxygenase (Euphorbiaceae extract and its control) is 22.4 µg/mL; at Lipoxygenase (extract and its control), 0.15 µg/mL. `COC(=O)c1cc(O)c(O)c(O)c1` [Methyl gallate] gave an IC50 in test [1] (setting [2]) of 330 µM.

Regarding `O=C(O)c1cc(O)c(O)c(O)c1` [Gallic acid], the IC50 at sPLA2 (Type V) was 65.6 µM; in test [1] (setting [2]) it was 2.17 µM; in test [1] (setting [3]), 2.2 µM. Regarding `CC(C)Cc1ccc(C(C)C(=O)O)cc1` (centres unmarked) [Ibuprofen], the “Lipoxygenase inhibition IC50” value at Lipoxygenase (extract and its control) is given as 69.7 µg/mL.

On to `CCOC(=O)c1cc(O)c(O)c(O)c1` [Ethyl gallate], for which the IC50 in test [1] (soybean 15-LOX, linoleic acid substrate, borate buffer pH 8.75, 37 °C, mean ± s.d., read-out: LOX Inhibition (IC50 µg/mL) (converted)) is 329 µM.
